Data set [1] can be described thus: Total emitted dose of the APIs from pMDI prototype formulations, HPLC assay. The data set is classed as physicochemical. Further details: unit not given here. As to conditions: pMDI Formulation 1-4; for emitted dose, Mean: Mean of ED 1 to ED 8. The protocol:
An optimized HPLC assay method was developed for the assay of prototype formulations.
The total emitted dose from APIs ED 1 to ED 8 was then analyzed using the HPLC Assay.

Data set [2] in a line: Next Generation Impactor (NGI) testing of pMDI prototype formulations. The class given is physicochemical. As to conditions: for Fine Particle Dose: Stages 3 to MOC; for Actual Emitted dose: Throat stage to MOC. The protocol: The Next Generation Pharmaceutical Impactor (NGI) testing is performed using Copley and MSP instruments. Emitted dose or Ex-device is calculated as the total dose deposited in the NGI apparatus starting from Throat stage to Micro-orifice collector (MOC). The Fine Particle Dose (FPD) is calculated as the total dose deposited in Stages 3 to MOC of the NGI apparatus. Mass Median Aerodynamic Diameter (MMAD) and Geometric Standard Deviation (GSD) is calculated from aerodynamic particle size distribution of particles in different stages of the NGI apparatus.

As for `CCCCCc1cc(O)c2c(c1)OC(C)(CCC=C(C)C)C=C2` (stereo not shown) [CBC, cannabichromene], the emitted dose in data set [1] (ED 7) worked out at 262.4. Further, in data set [1] (ED 8), the emitted dose amounted to 269.8. Besides, the “emitted dose, Mean” value in data set [1] amounted to 266.1. In data set [2] (Formulation 1), the “% Emitted dose” value was 89%, the “% Fine Particle Dose” value is reported as 36%, the GSD was 3 and the MMAD is 4.5 µm. Besides, in data set [2] (Formulation 1), the “Fine Particle Dose” value worked out at 108.6 µg and the “Actual Emitted dose” value amounted to 266.1 µg. Moreover, in data set [2] (Formulation 4), the “% Emitted dose” value is 105%, the “% Fine Particle Dose” value is given as 36%, the GSD is on record as 3 and the MMAD came out at 5.2 µm. For the same compound, in data set [2] (Formulation 4), the “Fine Particle Dose” value turned out to be 71.1 µg and the “Actual Emitted dose” value came out at 209.4 µg.

As for `C=C(C)[C@@H]1CCC(C)=C[C@H]1c1c(O)cc(CCCCC)cc1O` [CBD, cannabidiol, reference compound], the emitted dose amounted to 287.0 in data set [1] (ED 1); 289.2 in data set [1] (ED 2); 308.0 in data set [1] (ED 3); 316.2 in data set [1] (ED 4); 284.9 in data set [1] (ED 5); 292.6 in data set [1] (ED 6). Also, the emitted dose came out at 301.6 in data set [1] (ED 7) and 304.3 in data set [1] (ED 8). Also, the “emitted dose, Mean” value in data set [1] came to 298.0. The “% Emitted dose” value turned out to be 104% in data set [2] (Formulation 1), 96% in data set [2] (Formulation 2), 101% in data set [2] (Formulation 3) and 96% in data set [2] (Formulation 4). The “% Fine Particle Dose” value in data set [2] (Formulation 1) was 41%; in data set [2] (Formulation 2) it was 37%; in data set [2] (Formulation 3) it was 40%; in data set [2] (Formulation 4), 36%. Also, the GSD in data set [2] (Formulation 1), in data set [2] (Formulation 2), in data set [2] (Formulation 3) and in data set [2] (Formulation 4) was 3 each time. Besides, the MMAD in data set [2] (Formulation 1) was 4.6 µm; in data set [2] (Formulation 2) it was 4.5 µm; in data set [2] (Formulation 3) it was 4.4 µm; in data set [2] (Formulation 4), 4.75 µm. Moreover, the “Fine Particle Dose” value worked out at 122.8 µg in data set [2] (Formulation 1), 111.0 µg in data set [2] (Formulation 2), 120.8 µg in data set [2] (Formulation 3) and 109.5 µg in data set [2] (Formulation 4). For the same compound, the “Actual Emitted dose” value in data set [2] (Formulation 1) is 312.1 µg; in data set [2] (Formulation 2), 288.7 µg; in data set [2] (Formulation 3), 303.0 µg; in data set [2] (Formulation 4), 288.1 µg.

`C=C(C)[C@@H]1CCC(C)=C[C@H]1c1c(O)cc(CCC)cc1O` [CBDV, cannabidivarin] registered an emitted dose in data set [1] (ED 7) of 265.4. The emitted dose in data set [1] (ED 8) is on record as 278.5. The “emitted dose, Mean” value in data set [1] amounted to 272.0. In data set [2] (Formulation 3), the “% Emitted dose” value was determined as 91%, the “% Fine Particle Dose” value came to 36%, the GSD amounted to 3 and the MMAD came out at 4.6 µm. For the same compound, in data set [2] (Formulation 3), the “Fine Particle Dose” value was determined as 108.0 µg and the “Actual Emitted dose” value was found to be 272.0 µg. In data set [2] (Formulation 4), the “% Emitted dose” value worked out at 98%, the “% Fine Particle Dose” value is given as 33%, the GSD came to 3 and the MMAD stood at 5.1 µm. Also, in data set [2] (Formulation 4), the “Fine Particle Dose” value stood at 66.5 µg and the “Actual Emitted dose” value was 195.2 µg.

With `CCCCCc1cc(O)c(C/C=C(\C)CCC=C(C)C)c(O)c1` [CBG, cannabigerol], the emitted dose in data set [1] (ED 3) was 338.2; in data set [1] (ED 4), 353.3; in data set [1] (ED 5) it was 323.7; in data set [1] (ED 6), 332.9; in data set [1] (ED 7), 331.0; in data set [1] (ED 8), 332.1. The “emitted dose, Mean” value in data set [1] worked out at 335.2. In addition, the “% Emitted dose” value is given as 115% in data set [2] (Formulation 1), 109% in data set [2] (Formulation 2), 111% in data set [2] (Formulation 3) and 106% in data set [2] (Formulation 4). The “% Fine Particle Dose” value in data set [2] (Formulation 1) was 43%; in data set [2] (Formulation 2), 39%; in data set [2] (Formulation 3), 43%; in data set [2] (Formulation 4), 34%. Further, the GSD in data set [2] (Formulation 1), in data set [2] (Formulation 2), in data set [2] (Formulation 3) and in data set [2] (Formulation 4) was 3 each time. In addition, the MMAD was found to be 4.7 µm in data set [2] (Formulation 1), 4.65 µm in data set [2] (Formulation 2), 4.5 µm in data set [2] (Formulation 3) and 5.25 µm in data set [2] (Formulation 4). The “Fine Particle Dose” value in data set [2] (Formulation 1) was 129.5 µg; in data set [2] (Formulation 2), 118.0 µg; in data set [2] (Formulation 3), 127.5 µg; in data set [2] (Formulation 4), 67.5 µg. Besides, the “Actual Emitted dose” value in data set [2] (Formulation 1) was 345.7 µg; in data set [2] (Formulation 2) it was 328.3 µg; in data set [2] (Formulation 3), 331.6 µg; in data set [2] (Formulation 4), 212.1 µg.

In turn, `CCCCCc1cc(O)c2c(c1)OC(C)(C)c1ccc(C)cc1-2` [CBN, cannabinol] came in with an emitted dose in data set [1] (ED 7) of 255.7. In data set [1] (ED 8), this compound registered an emitted dose of 263.5. In data set [1], the “emitted dose, Mean” value turned out to be 259.6. Also, in data set [2] (Formulation 2), the “% Emitted dose” value came out at 87%, the “% Fine Particle Dose” value turned out to be 35%, the GSD came out at 3 and the MMAD was determined as 4.4 µm. Further, in data set [2] (Formulation 2), the “Fine Particle Dose” value worked out at 105.8 µg and the “Actual Emitted dose” value amounted to 259.6 µg. In data set [2] (Formulation 4), the “% Emitted dose” value was found to be 95%, the “% Fine Particle Dose” value is recorded as 34%, the GSD was found to be 3 and the MMAD came out at 5 µm. For the same compound, in data set [2] (Formulation 4), the “Fine Particle Dose” value was found to be 68.2 µg and the “Actual Emitted dose” value amounted to 189.1 µg.

For the compound `C[N+]1(C)CCC(OC(=O)C(O)(c2ccccc2)C2CCCC2)C1` (stereo not shown) [Glycopyrronium, glycopyrronium, reference compound], the emitted dose is 27.6 in data set [1] (ED 1); 28.7 in data set [1] (ED 2); 27.5 in data set [1] (ED 3); 28.5 in data set [1] (ED 4); 30.3 in data set [1] (ED 5); 32.4 in data set [1] (ED 6). The emitted dose was 27.0 in data set [1] (ED 7) and 30.2 in data set [1] (ED 8). The “emitted dose, Mean” value in data set [1] came out at 29.0. Further, the “% Emitted dose” value was determined as 104% in data set [2] (Formulation 1), 116% in data set [2] (Formulation 2), 106% in data set [2] (Formulation 3) and 104% in data set [2] (Formulation 4). In addition, the “% Fine Particle Dose” value was 29% in data set [2] (Formulation 1), 28% in data set [2] (Formulation 2), 31% in data set [2] (Formulation 3) and 25% in data set [2] (Formulation 4). The GSD in data set [2] (Formulation 1), in data set [2] (Formulation 2), in data set [2] (Formulation 3) and in data set [2] (Formulation 4) was 2 each time. The MMAD amounted to 4.9 µm in data set [2] (Formulation 1), 5.15 µm in data set [2] (Formulation 2), 5.1 µm in data set [2] (Formulation 3) and 5.65 µm in data set [2] (Formulation 4). Further, the “Fine Particle Dose” value turned out to be 7.8 µg in data set [2] (Formulation 1), 7.7 µg in data set [2] (Formulation 2), 8.3 µg in data set [2] (Formulation 3) and 6.8 µg in data set [2] (Formulation 4). Also, the “Actual Emitted dose” value in data set [2] (Formulation 1) worked out at 28.0 µg; in data set [2] (Formulation 2) it was 31.4 µg; in data set [2] (Formulation 3) it was 28.6 µg; in data set [2] (Formulation 4), 28.1 µg.

(Values after US20240325413A1, “FORMULATIONS FOR THE TREATMENT OF RESPIRATORY DISORDERS” (484 Science Corp, priority 2021, published 2024).)
